Data set [1] relates to C57BL/6 mice. Description: Open field locomotor activity test (Experiment 1.1). The class given is in vivo, mouse. How it is done:
N=18 adult male C57BL/6 mice received either 0, 5 or 10 mg/kg CMPD1-2HCL (i.p.; n=6 per condition). Fifteen minutes after receiving their i.p. injection of CMPD1-2HCL mice were placed individually into a novel 40 (l)×40 (w)×40 (h) cm locomotor testing arena. Sessions were captured by overhead cameras and videos were analysed by using the automated behaviour tracking software CleverSys Topscan (CleverSys, Virginia, USA), which provided the distance travelled by each mouse in each 5 min time bin over the 60 minute locomotor testing session. Data were analysed by SPSS using mixed model ANOVA.

In data set [2] the test system is naloxone precipitated oxycodone withdrawal in C57BL/6 mice. Description: Naloxone precipitated oxycodone withdrawal: jumping and paw tremors (Experiment 1.2). The data set is classed as in vivo, mouse. Conditions: for Number of jumps for each mouse in the 30 min test session / Total duration of paw tremors for each mouse in the 30 minute test session: oxycodone condition mice, individual mice. How it is done:
Adult male C57BL/6 mice (N=40) were allocated to one of five conditions (n=8 per condition):
Mice in the oxycodone conditions received i.p. injections of oxycodone for 5 days according to the schedule and doses set out in Table 1. The morning and afternoon doses were separated by 7 h. Mice in the vehicle condition received injections of vehicle saline instead of oxycodone. One-hour-and-forty-five minutes after the morning injection on day 5, mice were administered their i.p. dose of CMPD1-2HCL. Fifteen minutes later they received an i.p. injection of 10 mg/kg naloxone (oxycodone groups) or saline (vehicle group), and proceeded immediately to testing.
Testing involved placing mice individually into a 20 (l)×20 (w)×30 (h) cm arena for 30 min. Sessions were captured via a side view high speed (120 fps), high resolution (4K) camera. Number of jumps and total duration of paw tremors were scored from the videos by an experienced experimenter blind to conditions.
Data were analysed by SPSS using oneway ANOVA and planned contrasts.

Data set [3] concerns c-fos protein expression in the brain. The experiment in a line: Naloxone-precipitated opioid withdrawal-induced c-fos protein expression in the brain (Example 2). The class given is in vivo, mouse. To be noted: 10 mg/kg i.p.; 8 brain regions; 75 minutes after naloxone. As for the experimental part:
In this example, the ability of Compound 1 to inhibit naloxone-precipitated opioid withdrawal-induced c-fos protein expression in the brain was studied. C-fos is a protein marker of neural activation. Compound 1 was administered in dihydrochloride salt form (CMPD1-2HCL).
N=40 male C57BL/6 mice were assigned to one of the following four conditions:
Mice in the oxycodone (OXY) conditions received i.p. injections of oxycodone for 9 days with increasing doses of 9, 17.8, 23.7 and 33 mg/kg (twice daily on days 1-8, with dose increasing every other day). The morning and afternoon doses were separated by 7 h. Mice in the vehicle condition (VEH) received injections of vehicle saline instead of oxycodone. One-hour-and-forty-five minutes after the morning injection on day 9, mice were administered their i.p. dose of CMPD1-2HCL (10 mg/kg at an injection volume of […]) or VEH. Fifteen minutes later they received an i.p. injection of 10 mg/kg naloxone (OXY groups) or saline (VEH groups) to precipitate withdrawal.
75 minutes after their naloxone or saline injection, mice were euthanised by sodium pentobarbitone overdose, and intracardiac puncture perfusion fixation was performed with 4% paraformaldehyde, and brains were then collected for immunohistochemical processing.
Data were analysed by SPSS using two-way ANOVA and planned contrasts.

The subject of data set [4] is naloxone precipitated oxycodone withdrawal in C57BL/6 mice. Description: Gastrointestinal symptoms of opioid withdrawal: fecal boli and diarrhea (Example 3). The data set is classed as in vivo, mouse. Conditions: 10 mg/kg i.p. As for the experimental part:
In this example, the ability of CMPD1-2HCL to inhibit the gastrointestinal symptoms of opioid withdrawal was assessed using a murine model.
Adult male C57BL/6 mice ([…]) were allocated to one of four conditions (n=10 per condition):
Mice in the oxycodone conditions (OXY) received i.p. injections of oxycodone for 5 days according to the schedule and doses set out in Table 7. The morning and afternoon doses were separated by 7 h. Mice in the vehicle condition received injections of vehicle saline instead of oxycodone. One-hour-and-forty-five minutes after the morning injection on day 5, mice were administered their i.p. dose of CMPD1-2HCL (10 mg/kg). Fifteen minutes later they received an i.p. injection of 10 mg/kg naloxone (oxycodone groups) or saline (vehicle group), and proceeded immediately to testing.
Testing involved placing mice individually into a 20 (l)×20 (w)×30 (h) cm arena for 30 min. The number of fecal boli were counted at the end of the session and whether or not the mouse had diarrhea.
Data were analysed using ANOVA and planned contrasts for fecal boli and Fisher's exact test for diarrhea.

Data set [5] has the same test system. The experiment in a line: Naloxone precipitated oxycodone withdrawal-induced jumping, two salt forms (Example 4, Experiment 2.1). The data set is classed as in vivo, mouse. Conditions: 7.3 mg/kg FBE i.p.; for Oxycodone withdrawal-induced jumping vs OXY_VEH: CMPD1-PO4 p<0.01, CMPD1-2HCL p<0.001; for Withdrawal-induced jumping, comparison of the two salt forms: OXY_CMPD1-PO4 vs OXY_2 HCL p=0.901.

Data set [6] deals with C57BL/6 mice. Description: Open field locomotor activity test (Experiment 1.1). The data set is classed as in vivo, mouse. To be noted: 5 mg/kg i.p.; time post dose 75-80; individual mice 7-12.
The conditions of data set [7]: clinical trials; cited from earlier work.

SMILES strings stand for the structures. Where “and” joins values, the source holds several entries; their conditions need not be identical. Equal entries are not always repeated. Entries after “also recorded” stand apart in the source; their conditions may differ.

The source of these data is US20220288060A1, “Treatment of Opioid Withdrawal” (Kinoxis Therapeutics Pty Ltd, priority 2019, published 2022).

In the case of `Cl.Cl.Cn1ncc2c1Nc1ccccc1NC2` [CMPD1-2HCL], the “Distance travelled during time bin” value in the data set on C57BL/6 mice [1] (5 mg/kg i.p., time post dose 15-20 (5 min bin), individual mice 7-12) was 15043.46 mm and 20271.67 mm and 23636.81 mm and 18238.34 mm and 16051.42 mm and 16442.58 mm; in the data set with C57BL/6 mice [1] (5 mg/kg i.p., time post dose 20-25, individual mice 7-12), 20386.17 mm and 13996.02 mm and 16449.1 mm and 11919.46 mm and 11756.3 mm and 10974.55 mm; in the data set with C57BL/6 mice [1] (5 mg/kg i.p., time post dose 25-30, individual mice 7-12), 11089.15 mm and 11425.88 mm and 11764.23 mm and 8462.92 mm and 10127.95 mm and 8553.13 mm; in the data set with C57BL/6 mice [1] (5 mg/kg i.p., time post dose 30-35, individual mice 7-12), 13221.16 mm and 7779.42 mm and 11134.18 mm and 8664.63 mm and 9823.55 mm and 4905.54 mm; in the data set on C57BL/6 mice [1] (5 mg/kg i.p., time post dose 35-40, individual mice 7-12), 15282.34 mm and 6791.58 mm and 8208.55 mm and 11776.57 mm and 10597.55 mm and 5280.25 mm; with C57BL/6 mice [1] (5 mg/kg i.p., time post dose 40-45, individual mice 7-12), 7068.09 mm and 9050.59 mm and 7493.64 mm and 9121.74 mm and 5308.25 mm and 6050.2 mm. For the same molecule, the “Distance travelled during time bin” value in the data set with C57BL/6 mice [1] (5 mg/kg i.p., time post dose 45-50, individual mice 7-12) is 5367.28 mm and 6712.87 mm and 5587.1 mm and 5518.04 mm and 9993.79 mm and 5466.54 mm; in the data set with C57BL/6 mice [1] (5 mg/kg i.p., time post dose 50-55, individual mice 7-12) it was 945.3 mm and 7073.77 mm and 10568.53 mm and 9463.89 mm and 5234.55 mm and 6665.74 mm; in the data set on C57BL/6 mice [1] (5 mg/kg i.p., time post dose 55-60, individual mice 7-12), 3362.81 mm and 8088.81 mm and 11051.63 mm and 11843.34 mm and 6386.55 mm and 4645.85 mm; in the data set with C57BL/6 mice [1] (5 mg/kg i.p., time post dose 60-65, individual mice 7-12) it was 6133.83 mm and 10365.45 mm and 10059.86 mm and 11154.54 mm and 8969.03 mm and 4893.44 mm; in the data set on C57BL/6 mice [1] (5 mg/kg i.p., time post dose 65-70, individual mice 7-12) it was 5268.88 mm and 4809.55 mm and 6121.25 mm and 4100.88 mm and 9397.98 mm and 4757.22 mm; with C57BL/6 mice [1] (Table 3, 5 mg/kg, i.p., time post dose 35-40, individual mice 13-18), 11756.13 mm and 8046.38 mm (2×) and 12860.87 mm and 13271.28 mm and 10054.85 mm. Also, the “Distance travelled during time bin” value with C57BL/6 mice [1] (Table 3, 5 mg/kg, i.p., time post dose 40-45, individual mice 13-18) was 7682.41 mm and 2222.65 mm (2×) and 11152.11 mm and 12391.75 mm and 4683.51 mm; in the data set on C57BL/6 mice [1] (Table 3, 5 mg/kg, i.p., time post dose 45-50, individual mice 13-18), 11290.93 mm and 6482.48 mm (2×) and 10743.61 mm and 12658.5 mm and 8082.58 mm; in the data set with C57BL/6 mice [1] (Table 3, 5 mg/kg, i.p., time post dose 55-60, individual mice 13-18), 28970.94 mm and 12316.3 mm (2×) and 32680.43 mm and 27725.23 mm and 19894.04 mm; in the data set with C57BL/6 mice [1] (Table 3, 5 mg/kg, i.p., time post dose 60-65, individual mice 13-18) it was 17509.3 mm and 10864.14 mm (2×) and 28788.31 mm; in the data set on C57BL/6 mice [6] it was 3441.42 mm and 8422.46 mm and 11136.92 mm and 9156.71 mm and 2402.89 mm and 1364.63 mm. In the data set on C57BL/6 mice [1] (5 and 10 mg/kg i.p., main effect of dose p=0.392, time by dose interaction p=0.143), the “Effect on locomotor activity (distance travelled)” value is “does not significantly impact locomotor activity; also recorded: does not supress locomotor activity”. In addition, the “Jumping relative to mice not undergoing oxycodone withdrawal (VEH 0CMPD1)” value in data set [2] (2.5, 5, 10 mg/kg i.p., p<0.001, p<0.001, p=0.011) is on record as “still showed elevated jumping”. In data set [2] (2.5, 5, 10 mg/kg i.p., p=0.023, p=0.018, p<0.001), the “Oxycodone withdrawal-induced jumping vs OXCD 0CMPD1” value was “significantly inhibited”. In addition, the “Dysphoric and somatic symptoms (jumping and paw tremors) of oxycodone withdrawal” value in data set [2] (2.5-10 mg/kg i.p., conclusion) is recorded as “dose dependently inhibited”. Besides, the “Paw tremors relative to mice not undergoing oxycodone withdrawal (VEH 0CMPD1)” value in data set [2] (5 and 10 mg/kg i.p., p=0.204, p=0.4 (2.5 mg/kg p<0.01)) is on record as “no longer had significantly elevated paw tremors”. Besides, the “Oxycodone withdrawal-induced paw tremors vs OXCD 0CMPD1” value in data set [2] (highest dose 10 mg/kg i.p., p=0.033 (2.5 mg/kg p=0.898; 5 mg/kg p=0.083)) is “significantly inhibited”. Besides, the “Number of jumps for each mouse in the 30 min test session” value in data set [2] (2.5 mg/kg i.p., 2.5 mg/kg) was 86 and 52 and 58 and 50 (2×) and 31 and 92 and 68; in data set [2] (5 mg/kg i.p., 5 mg/kg), 51 and 35 and 61 and 48 (2×) and 30 and 136 and 67; in data set [2] (10 mg/kg i.p., 10 mg/kg), 25 and 120 and 17 and 33 (2×) and 26 and 51 and 34. Also, the “Total duration of paw tremors for each mouse in the 30 minute test session” value was 12.4 s and 2.3 s and 78.4 s and 48 s and 27.1 s and 20.4 s and 0.2 s and 0.4 s in data set [2] (2.5 mg/kg i.p., 2.5 mg/kg); 8.2 seconds and 21.4 seconds and 3 seconds (2×) and 18.5 seconds and 2.1 seconds and 3.2 seconds and 17 seconds in data set [2] (5 mg/kg i.p., 5 mg/kg); 9.9 seconds and 0 seconds (3×) and 6 seconds and 21.5 seconds and 3.3 seconds and 9.6 seconds in data set [2] (10 mg/kg i.p., 10 mg/kg). For the same molecule, the “Withdrawal induced neural activation (c-fos positive cells)” value in data set [3] is reported as “significantly inhibited withdrawal induced neural activation”. Also, the “Number of mice suffering from diarrhea” value in data set [4] (Fisher's exact test) is “inhibited”. In addition, the “Amount of fecal boli produced during the 30 min session” value in data set [4] (p<0.001 vs opioid withdrawal) is given as “significantly inhibited”. The “Proportion of mice suffering from diarrhea” value in data set [4] (OXY condition, n=10, OXY, VEH 90%, VEH, VEH 0%) was 30%. Besides, the “Oxycodone withdrawal-induced jumping vs OXY_VEH” value in data set [5] is given as “significantly inhibited”. Besides, the “Withdrawal-induced jumping, comparison of the two salt forms” value in data set [5] is “did not differ significantly”.

Turning to `Cn1ncc2c1Nc1ccccc1NC2.O=P(O)(O)O` [CMPD1-PO4], in data set [5], the “Oxycodone withdrawal-induced jumping vs OXY_VEH” value is listed as “significantly inhibited” and the “Withdrawal-induced jumping, comparison of the two salt forms” value is listed as “did not differ significantly”.

On to `CC(Oc1c(Cl)cccc1Cl)C1=NCCN1` (stereo not drawn) [lofexidine], for which, in data set [7], the “Improvements in acute opioid withdrawal symptoms and treatment retention” value is recorded as “only modest improvements”; the Side effects entry was “hypotension, bradycardia and insomnia”.
